Assay results from patent US8759376B2, “Isoxazole and isothiazole compounds useful in the treatment of inflammation” (The Feinstein Institute for Medical Research, priority 2003, dated 2014).
Several values for one entry are separate records, joined by “and”; a condition that tells them apart may be missing. Identical values can stand only once.

Tests used:
[1] = test system: α-bungarotoxin sensitive receptor on the RAW 264.7 cells; assay type: cell-based, murine
female BALB/c mice = experiment: Localized Shwartzman reaction model, ear immunostaining; assay type: in vivo; conditions: i.p.; ears 5 hours after LPS challenge; compared to vehicle-treated animals
Description: The localized Shwartzman reaction was performed as previously described (C. Sunderkotter, S. Seeliger, F. Schonlau, J. Roth, R. Hallmann, T. A. Luger, C. Sorg, and G. Kolde. 2001. Different pathways leading to cutaneous leukocytoclastic vasculitits in mice. Exp Dermatol 10:391-404.). Briefly, female BALB/c mice (22-26 g, Taconic) were injected with saline or Compound VIf (i.p., at the indicated doses), and then injected s.c. into the pinnae of the ear with 20 Φg LPS (preparatory dose). One day later, mice (4 per group) were injected either with vehicle (saline) or […] (i.p., at the indicated doses) 15 min prior to challenge with LPS (150 Φg, i.p.) To generate a localized vasculitic reaction. Five hours later, mice were sacrificed by CO2 asphyxiation, and the ears were excised and cut in half longitudinally. Ears were flash frozen in liquid nitrogen and stored at −80 EC. Each experiment was repeated twice. […]
After immunostaining, slides were counterstained with H&E, dehydrated, and mounted with permount. For enumeration of positive staining, three fields per section (three sections per sample) were assessed at 200× magnification and scored as the average number (+SD) of VCAM-1 or E-selectin positive capillaries/vessels. […]

[2] = test system: female Swiss Webster mice; experiment: Carrageenan air pouch model, pouch fluid cytokines by ELISA; assay type: in vivo; conditions: 12 mg/kg i.p.
TNF = TNF production by LPS-stimulated primary human macrophages (ELISA); assay type: cell-based; conditions: LPS 100 ng/ml, 4 hours
Description: Human macrophage cultures were prepared as follows. Buffy coats were collected from the blood of healthy individual donors to the Long Island Blood Bank Services (Melville, N.Y.). Primary blood mononuclear cells were isolated by density-gradient centrifugation through Ficoll/Hypaque (Pharmacia, N.J.), suspended (8×10^6 cells/ml) in RPMI 1640 medium supplemented with 10% heat inactivated human serum (Gemini Bio-Products, Inc., Calabasas, Calif.), and seeded in flasks (PRIMARIA; Beckton and Dickinson Labware, Franklin Lakes, N.J.). After incubation for 2 hours at 37° C., adherent cells were washed extensively, treated briefly with 10 mM EDTA, detached, resuspended (10^6 cells/ml) in RPMI medium (10% human serum), supplemented with human macrophage colony stimulating factor (MCSF; Sigma Chemical Co., St. Louis, Mo.; 2 ng/ml), and seeded onto 24-well tissue culture plates (PRIMARIA; Falcon) (10^6 cells/well). Cells were allowed to differentiate for 7 days in the presence of MCSF. On day 7 the cells were washed 3 times with 1× Dulbecco's phosphate buffered saline (PBS, GibcoBRL, Life Technologies, Rockville, Md.), fresh medium devoid of MCSF was added, and experiments performed as indicated. […]

Compound: α-bungarotoxin
- effect on the inhibition of LPS-mediated TNFα release by compound (VI f) [1]: partially abrogated the inhibitory effect

Compound: c1cncc(C2=NOC(c3ccncc3)C2)c1 (centres unmarked) [Compound (VI f)]
- E-selectin protein expression by the endothelium (female BALB/c mice): reduced
- VCAM-1 protein expression by the endothelium (female BALB/c mice): reduced
- reduction of pouch fluid levels of MCP-1 [2]: 20% and 30%
- reduction of pouch TNF levels ([2]; compared to vehicle-treated controls): 40%
- pouch TNF level, % of control ([2]; control 100±7%): 60±11%

Compound: c1ccc(C2CC(c3cccnc3)=NO2)nc1 (centres unmarked) [(VI d)]
- TNF release (TNF): inhibited TNF release in a dose dependent manner
- efficacy on TNF release compared with control (nicotine) (TNF): comparable to or better than that of the control
